Laboratory results reported in patent publication US20220040252A1, “TREATMENT OF PROSTATE CANCER BY ANDROGEN ABLATION AND IL-8 BLOCKADE” (The Trustees of Columbia University in the City of New York, priority 2019, published 2022).
Where two headings read alike, the source gives them in different places.

What was measured:
[1] = system: IL-8 (CXCL8) promoter; details: LNCaP cells, cited from earlier work
[2] = system: IL-8 (CXCL8) promoter; details: LNCaP cells, DHT 100 nM
Description: Chromatin immunoprecipitation was performed. In brief, LNCaP cells were washed with serum-free media and then grown in media containing 10% charcoal stripped FBS for 48 hours. Cells were treated with 100 nM DHT or vehicle for 8 hours. DNA was cross-linked with 1% formaldehyde in PBS for 10 minutes and crosslinking was quenched by addition of 0.125 M glycine. Fixed cells were then lysed in lysis buffer (1% SDS, 5 mM EDTA, 50 mM Tris HCl, pH8.1) and sonicated to a fragment size of 200-600 bp using a Covaris water bath sonicator (Woburn, Mass.). Sheared chromatin was then incubated with primary antibodies (AR [06-680, Millipore], H3K4me3 [ab8580, Abcam], phospho-SerS RNA polymerase 2 [ab5131, Abcam], RNA polymerase 2 [4H8, Cell Signaling Technologies] or control IgG [Cell Signaling Technologies]) overnight at 4° C. Complexes were immobilized on Dynabeads (Thermo Fisher) by incubating for 4 hours at 4° C. Beads were sequentially washed with TSEI (0.1% SDS, 1% Triton X-100, 2 mM EDTA, 20 mM Tris HCl, pH 8.1, 150 mM NaCl), TSEII (0.1% SDS, 1% Triton X-100, 2 mM EDTA, 20 mM Tris HCl, pH 8.1, 500 mM NaCl) and TSEIII (0.25 M LiCl, 1% NP-40, 1% deoxycholate, 1 mM EDTA, 10 mM Tris HCl, pH 8.1). […] Enriched DNA libraries were analyzed using primers specific to IL-8 locus: Forward: 5′ [sequence] […] 3′ (SEQ ID NO: 2) using quantitative (q) RT-PCR. […]

[3] = system: IL-8; experiment: qRT-PCR quantification of IL-8 in LNCaP cells; format: cell-based, human; details: LNCaP cells in androgen-free media, FIG. 1f
Description: Myc-Cap, derived from spontaneous prostate cancer in c-Myc transgenic mice, was a generous gift from Dr. C. Sawyers. To generate MCRedAL, Myc-Cap cells were transfected with pRetroQ-mCherry-C1 (Clontech) using lipofectamine 2000 (Invitrogen) and isolated by FACS sorting based on mCherry expression (Extended Data FIG. 1a). Myc-Cap and MCRedAL cells were cultured in DMEM as previously described. LNCaP, VCaP, E006AA, CWR22Rv1, DU145, and PC3 cell lines were obtained and cultured as recommended by the ATCC. LAPC4 (a gift from Dr. S. Yegnasubramanian) were maintained in RPMI-1640 (Corning) supplemented with 10% fetal bovine serum (FBS; Gemini Bio-Products). Androgen independent LNCaP-abl cells were a gift from Dr. Z. Culig and cultured as described previously^29. LAPC4-CR and VCaP-CR (a gift from S. Yegnasubramanian) were derived by passaging LAPC4 and VCaP cells through castrated animals and further subculturing in RPMI-1640 supplemented with 10% charcoal stripped serum (CSS; Gemini Bio-Products) supplemented with 1×B-27 Neuronal Supplement (Gibco). For experiments when cells were grown in androgen-free conditions, 10% FBS was substituted for 10% CSS in complete media. For migration/chemotaxis assays, prostate cancer cell lines were cultured in complete media containing either 0.5% or 2.5% FBS for human and murine cells, respectively. […]

[4] = system: PSA (KLK3) promoter; details: LNCaP cells, DHT 100 nM, FIG. 1h right
Description: Chromatin immunoprecipitation was performed. In brief, LNCaP cells were washed with serum-free media and then grown in media containing 10% charcoal stripped FBS for 48 hours. Cells were treated with 100 nM DHT or vehicle for 8 hours. […] Fixed cells were then lysed in lysis buffer (1% SDS, 5 mM EDTA, 50 mM Tris HCl, pH8.1) and sonicated to a fragment size of 200-600 bp using a Covaris water bath sonicator (Woburn, Mass.). Sheared chromatin was then incubated with primary antibodies (AR [06-680, Millipore], H3K4me3 [ab8580, Abcam], phospho-SerS RNA polymerase 2 [ab5131, Abcam], RNA polymerase 2 [4H8, Cell Signaling Technologies] or control IgG [Cell Signaling Technologies]) overnight at 4° C. Complexes were immobilized on Dynabeads (Thermo Fisher) by incubating for 4 hours at 4° C. Beads were sequentially washed with TSEI (0.1% SDS, 1% Triton X-100, 2 mM EDTA, 20 mM Tris HCl, pH 8.1, 150 mM NaCl), TSEII (0.1% SDS, 1% Triton X-100, 2 mM EDTA, 20 mM Tris HCl, pH 8.1, 500 mM NaCl) and TSEIII (0.25 M LiCl, 1% NP-40, 1% deoxycholate, 1 mM EDTA, 10 mM Tris HCl, pH 8.1). DNA was eluted with IP Elution buffer (1% SDS, 0.1M NaHCO3, proteinase K) and incubated at 56° C. for 15 minutes. […] Data is shown as relative enrichment normalized to input DNA.

[5] = system: Cxcl15; experiment: Cxcl15 expression in benign prostate epithelium of mice (RISH, qRT-PCR); format: in vivo, mouse; details: WT mice treated with ADT followed by testosterone repletion, FIG. 2g
Excerpt: Eight-week-old male HOXB13-GFP mice carrying the Hoxb13-rtTA transgene and a Tetracycline operator—Histone 2B-Green Fluorescent Protein (TetO-H2BGFP), which results on GFP expression being restricted to luminal epithelial Hoxb13^+ cells (described previously), were castrated via bilateral orchiectomy. A cycle of prostate regression/regeneration was induced as described previously. Briefly, mice were allowed to regress for six weeks to reach the fully involuted state. Mice were randomized to ADT or ADT+testosterone (T) treatment groups. Testosterone was administered for four weeks for prostate regeneration by subcutaneous pellets; this regimen yields physiological levels of serum testosterone. All mice received 2 mg/ml of Doxycycline (Sigma) in the drinking water to induce GFP expression under the control of the luminal epithelial promoter, HoxB13, one week prior euthanizing them for their analysis.
Manual fluorescent RNAScope was performed on formalin-fixed and zinc-fixed paraffin embedded sections using company protocols. Briefly, sections were cut at 5 μm, air dried overnight, baked at 60° C. for 1 hrs, dewaxed and air-dried before pre-treatments. RNAScope Cxcl15, 3-plex positive control probes (Polr2a, Ppib, Ubc) and 3-plex negative control probes (DapB of Bacillus subtilis strain) from Advanced Cell Diagnostics (ACD) were used in this study. […]

[6] = system: IL-8; details: men undergoing ADT with testosterone supplementation vs ADT, FIG. 2h; cited from earlier work
[7] = system: Myc-Cap tumors; experiment: Immune infiltration (PMN-MDSC, TIL, TAM) of Myc-Cap tumors by flow cytometry; format: in vivo, mouse; details: Myc-Cap allografts after ADT, FIG. 3b
Description: Eight-week-old male FVB/NJ and J:NU mice were subcutaneously inoculated in the right flank with either Myc-Cap or MCRedAL (1×10^6 cells/mouse), and LNCaP or PC3 (3×10^6 cells/mouse), respectively. Tumor diameters were measured with electronic calipers every 3 days as indicated and the tumor volume was calculated using the formula: [longest diameter×(shortest diameter)^2]/2. Myc-Cap tumor bearing mice received androgen-deprivation therapy (ADT) 4 weeks after tumor implantation when tumor volume reached ˜500 mm^3, as indicated in figure legends. […] Onset of castration-resistance was defined as the time to tumor size increased by 30% (˜650 mm^3) after ADT. Chemical castration by ADT was compared to bilateral orchiectomy as described in FIG. 1a. […]
Single-cell suspensions from prostate tumor and tissues were prepared using the Mouse Tumor Dissociation Kit according to the manufacturer's recommendations (Miltenyi). […] Gates of cytokines were determined by fluorescence minus one (FMO) controls. Staining was visualized by fluorescenceactivated cell sorting (FACS) analysis using a BD FACSCelesta™ (BD Biosciences) and analyzed using FlowJo® (Flowjo LLC). […]

[8] = system: IL-8; details: high-risk PCa patients treated with ADT (degarelix 240 mg SQ) vs untreated controls, FIG. 2i
Description: Formalin fixed, paraffin embedded (FFPE) human prostate cancer samples were obtained from consented patients treated with ADT (degarelix; 240 mg SQ) in a neo-adjuvant trial (NCT01696877) and matched control radical prostatectomies were obtained from patients treated at the Johns Hopkins Sidney Kimmel Comprehensive Cancer Center (Baltimore, Md.) under IRB-approved clinical protocol J1265. All patients provided written, informed consent. Total RNA was extracted using Trizol (Ambion). cDNA was prepared from total RNA preps using the RNA to cDNA EcoDry Premix (Clontech). Real-time assays were conducted using TaqMan real-time probes (Applied Biosystems). AA CT method was used for relative gene expression. Expression of the target gene was normalized to the reference gene (18S) and the mean expression level of the control group. LCM samples were normalized to 18S, TBP, and GAPDH reference genes. […] Sections were deparaffinized, hydrated and stained with hematoxylin prior to microdissection. Individual cancer cells and cancer cell clusters were microdissected by a trained pathologist using a LMD 7000 laser capture microscope (Leica). RNA was recovered from the microdisseceted material using the RNeasy FFPE kit (Qiagen). Quantitative RT-PCR was performed as described above. For the analysis, a Mann-Whitney U test was performed.

[9] = system: Cxcl15; experiment: Expression analysis of sorted MCRedAL tumor cells pre- and post-ADT; format: in vivo, mouse
Description: Eight-week-old male FVB/NJ and J:NU mice were subcutaneously inoculated in the right flank with either Myc-Cap or MCRedAL (1×10^6 cells/mouse), and LNCaP or PC3 (3×10^6 cells/mouse), respectively. Tumor diameters were measured with electronic calipers every 3 days as indicated and the tumor volume was calculated using the formula: [longest diameter×(shortest diameter)^2]/2. Myc-Cap tumor bearing mice received androgen-deprivation therapy (ADT) 4 weeks after tumor implantation when tumor volume reached ˜500 mm^3, as indicated in figure legends. […]
Tumors collected at different treatment time points were minced, lysed in CelLytic MT (Sigma) containing halt protease and phosphatase inhibitor (Thermo Fisher) in a 1:100 ratio, and incubated on ice for 30 minutes with intermittent vortexing. […] IL-8 and Cxcl15 were analyzed by ELISA kits following the manufacturer's instructions (BD Bioscience and R&D Systems, respectively).
MCRedAL tumor were harvested when their tumor volume reached ˜500 mm^3 (CS group), and 7 days after chemical castration (ADT). […] Resulting CEL files were analyzed in Affymetrix Expression Console (v. 1.4) using the SST-RMA method, and all samples passed the quality control. Log2 probe intensities were extracted from CEL (signal intensity) files and normalized using RMA quantile normalization, then further analyzed using Partek Genomics Suite v6.6. […]

## C[C@]12CCC(=O)C[C@@H]1CC[C@@H]1[C@@H]2CC[C@]2(C)[C@@H](O)CC[C@@H]12 [DHT, dihydrotestosterone]
[1]; DHT 100 nM, FIG. 1g top
  AR binding at the IL-8 promoter (in silico ChIP-Seq analysis, GSE83860): found AR binding at the IL-8 promoter
[2]; FIG. 1h
  androgen dependent AR binding at the IL-8 promoter (ChIP-qRT-PCR): verified by ChIP-qRT-PCR
[2]; FIG. 1h left
  binding of pol II, pSer2 pol II and H3K4me3 to the IL-8 locus: substantially reduced
[3]
  IL-8 expression (qRT-PCR): did not affect IL-8 expression
[4]
  pSer2 pol II binding to the promoter of PSA (KLK3): significantly increased

## C[C@]12CC[C@H]3[C@@H](CCC4=CC(=O)CC[C@@]43C)[C@@H]1CC[C@@H]2O [testosterone]
[5]
  epithelial Cxcl15 expression: expression significantly decreased by testosterone repletion
[6]
  IL-8 mRNA expression: significantly reduced IL-8 mRNA expression

## TNFα
[1]; TNFα 1000 U/ml, FIG. 1g bottom
  p65 binding at the IL-8 (CXCL8) promoter (ChIP-Seq, GSE83860): significantly increased p65 binding
[3]
  IL-8 expression (qRT-PCR): upregulated IL-8 expression in a dose-dependent manner

## degarelix acetate [ADT]
[7]
  T cell influx into tumor: promoted a transient T cell influx
  tumor associated macrophage (TAM) populations: without significant changes in tumor associated macrophage (TAM) populations
[8]
  IL-8 expression (qRT-PCR): increased IL-8 expression
[9]; MCRedAL tumor cells, 7 days after chemical castration vs castration-sensitive, FIG. 1d
  Cxcl15 transcript (microarray): significantly up-regulated post-ADT
[9]; post-ADT, data not shown
  Cxcl15 (qRT-PCR and ELISA): confirmed the upregulation of Cxcl15 post-ADT at the protein level
